Assay results taken from publication PMC4467816 (EJNMMI Research, 2015).
Each block holds one compound with its values, some of them ahead of it.

What was measured:
NET [1] = biological target: T1, NET (Rattus norvegicus, UniProt Q63380); assay: In vitro autoradiography with [11C]Me@HAPTHI, rat heart slices, competition; type: binding; details: for % BL-competitor: [11C]Me@HAPTHI binding, BL = baseline; for fmol (calculated relative concentration of transporter protein): limit of detection 0.01 fmol
T1 construct: Wild-type male rats were deeply anesthesized by isoflurane and sacrificed by decapitation; The organs of interest (i.e. brain, heart and testis) were removed; from tissue; host or cells: rat heart, 10 µm cryo-slices
T1 sequence (Q63380 1-617): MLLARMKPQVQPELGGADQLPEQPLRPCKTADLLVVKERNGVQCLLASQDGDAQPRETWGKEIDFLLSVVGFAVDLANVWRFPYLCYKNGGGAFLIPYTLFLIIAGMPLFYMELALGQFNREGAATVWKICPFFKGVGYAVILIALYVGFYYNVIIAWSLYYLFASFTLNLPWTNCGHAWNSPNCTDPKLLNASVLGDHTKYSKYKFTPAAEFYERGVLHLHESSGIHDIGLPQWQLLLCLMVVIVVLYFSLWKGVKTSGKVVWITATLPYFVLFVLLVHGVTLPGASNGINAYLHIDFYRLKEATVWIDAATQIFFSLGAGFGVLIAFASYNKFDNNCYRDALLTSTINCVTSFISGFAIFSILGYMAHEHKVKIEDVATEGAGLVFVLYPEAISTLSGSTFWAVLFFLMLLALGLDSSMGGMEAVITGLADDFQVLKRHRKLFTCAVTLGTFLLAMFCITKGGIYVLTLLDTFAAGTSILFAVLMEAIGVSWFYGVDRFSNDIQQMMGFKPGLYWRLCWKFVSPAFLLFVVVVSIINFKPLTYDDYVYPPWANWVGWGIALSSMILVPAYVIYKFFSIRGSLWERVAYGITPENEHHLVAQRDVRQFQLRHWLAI
Description: (§1) In vitro autoradiography was performed with slight modifications according to previously published protocols. Non-specific binding was determined by co-incubation with excess Nisoxetine (10 μM). […] After 1 h at room temperature, incubation was stopped and slices were processed on phosphor imaging films.
(§2) All data was exported to Microsoft Excel for statistical analysis, and the percentage of total specific binding was calculated.
(§3) A buffer for pre-incubation (50 mM TRIS HCl in aqua dest., pH 7.4) and a buffer for the experiment (50 mM TRIS HCl, pH 7.4, 300 mM NaCl, 5 mM KCl, 0.1%w/v ascorbic acid in aqua dest.) were prepared the day before the experiment and stored at 4 °C.
(§4) Tissue sections were allowed to thaw to RT upon thorough vanishing of condense water residues (5-10min). Subsequently, the slices were pre-incubated with the respective buffer at RT for 30 min in a Coplin jar. Slices were taken out of the jar and the buffer residues were removed.
(§5) Non-specific binding was determined by co-incubation with excess Nisoxetine (10 µM). […] To the naïve incubation solution (baseline), a vehicle containing acetonitrile was added in the same concentration as used for the dissolution of the competitors (i.e. 0.3% acetonitrile in the final incubation solution).
(§6) After 1 h the incubation was stopped and the slices were washed twice for 5 min in a jar with ice-cold incubation buffer. Finally, the tissue slides were washed with ice-cold water to remove all residual salts and dried under a smooth air stream. Subsequently, the dry tissue slices were placed on Phosphor-Imager films in a lead shielded cassette for an exposure time of 12 h. Following the analysis of the films with a Cyclone Phosphor Imager, regions of interest (ROI) were analyzed using OptiQuant® software. The signal obtained (digital light units/mm2=DLU/mm^2) was proportional to the radioactivity on the film. Using a calibration curve for each experiment, DLUs were converted into kBq/mm^2. Furthermore, for calculation of NET-density, kBq were converted into fmol by taking into account the specific activity of the radiotracer preparations. All data was exported to Microsoft Excel for statistical analysis and the percentage of total specific binding was calculated.

[2] = HPLC-based logD analysis (ODP-50 column); type: physicochemical; details: for chromatographic logD: HPLC on polymeric ODP-50 column, methanol/phosphate buffer, pH 7.4, HPLC method
Description: LogD values were assessed using a HPLC-based protocol according to Donovan and Pescatore. All compounds (as cold reference standards) were injected together with two known compounds—with known logD and k′ values—according to a standard protocol. A polymeric ODP-50 column was used; a linear gradient from 10 % MeOH 90 % 25 mM phosphate buffer (pH 7.4) to 100 % methanol within 9.4 min at a flow-rate of 1.5 mL/min was applied. Internal standards were triphenylene and toluene; detection was performed at 260 and 285 nm.

NET [3] = biological target: T2, NET (Homo sapiens, UniProt P23975); assay: In vitro autoradiography with [11C]Me@HAPTHI, human brain slices, competition; type: binding
T2 construct: The human postmortem tissue (7–9 h postmortem time, no history of neurological diseases) was obtained from the Neurobiobank; from tissue; host or cells: post-mortem human brain (cortex, thalamus, hippocampus, cerebellum, hypothalamus, nucleus caudatus), 10 µm cryo-slices
T2 sequence (P23975 whole entry): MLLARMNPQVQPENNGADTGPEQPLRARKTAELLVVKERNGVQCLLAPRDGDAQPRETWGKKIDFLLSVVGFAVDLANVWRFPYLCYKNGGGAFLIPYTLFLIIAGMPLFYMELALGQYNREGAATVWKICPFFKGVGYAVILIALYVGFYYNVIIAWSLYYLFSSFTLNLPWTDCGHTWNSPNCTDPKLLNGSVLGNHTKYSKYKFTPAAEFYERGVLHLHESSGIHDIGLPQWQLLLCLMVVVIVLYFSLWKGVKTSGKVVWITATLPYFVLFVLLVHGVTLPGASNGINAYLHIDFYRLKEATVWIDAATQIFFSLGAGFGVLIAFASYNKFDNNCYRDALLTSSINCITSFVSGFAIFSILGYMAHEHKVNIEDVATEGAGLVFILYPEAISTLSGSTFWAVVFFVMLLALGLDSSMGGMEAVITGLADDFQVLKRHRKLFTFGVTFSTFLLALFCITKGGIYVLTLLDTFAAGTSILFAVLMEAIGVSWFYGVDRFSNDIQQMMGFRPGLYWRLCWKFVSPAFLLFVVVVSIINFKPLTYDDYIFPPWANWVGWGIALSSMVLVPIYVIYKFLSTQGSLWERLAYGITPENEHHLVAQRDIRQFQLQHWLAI
Description: Human brain tissue (cortex, thalamus, hippocampus, cerebellum and hypothalamus) was obtained deeply frozen from the Neurobiobank of the Medical University Vienna and was stored at −80 °C. Before cutting, tissue blocks were thawed slowly within 12 h to −20 °C. The organs were cut at −20 °C in a micro-cryotome into 10-μm-thick slices and thaw mounted onto object slides. Slices were again stored at −80 °C until the beginning of the experiment.
as §1, §2
Human brain tissue (cortex, thalamus, hippocampus, cerebellum, and hypothalamus) was obtained deeply frozen from the Neuro-Biobank of the Medical University Vienna. Upon cutting, all tissue was stored at -80 °C. Before cutting, tissue blocks were thawed slowly within 12 h to -20 °C. The organs were cut at -20°C in a micro-cryotome into 10 µm thick slices and thaw mounted onto object slides. Until the beginning of the experiment, slices were stored at -80°C.
as §3, §4, §5, §6

[4] = biological target: T3, hNET expressing membranes (Homo sapiens, UniProt P23975); assay: Harvesting experiments with [11C]Me@HAPTHI on hNET expressing membranes; type: binding; details: cold competitor 1-1000 nM, n ≥ 3 triplicates
T3 construct: purchased Perkin Elmer RBHNETM400AU
T3 sequence (P23975 whole entry): as above

NET [5] = biological target: T2, NET; assay: In vitro autoradiography with [11C]Me@HAPTHI, human brain slices, competition; type: binding; details: human nucleus caudatus
[6] = Plasma free fraction by ultrafiltration; type: in vitro ADME, human; details: binding to filter matrix of Centrifree vials, phosphate buffer pH 7.4
Description: For the determination of free fraction in human pooled plasma, an ultrafiltration protocol according to previously published methods was used. […] For a detailed method, see Additional file 1.
After incubation for 20 min at room temperature, the Centrifree vials were centrifuged for 50 minutes at 1800g. Subsequently, an aliquot of 50 µL of the ultrafiltrate was taken and measured in the γ-counter. The plasma free fraction was subsequently calculated as the ratio of the ultrafiltrate activity to the total plasma activity. […] The final free fraction value was corrected for this unspecific filter binding.

human SERT membranes = biological target: T4, human SERT membranes (Homo sapiens, UniProt P31645); assay: SERT-expressing membrane binding (selectivity); details: n ≥ 5 triplicates, read-out: affinity towards SERT
T4 construct: purchased Perkin Elmer RBHSTM400UA
T4 sequence (P31645 whole entry): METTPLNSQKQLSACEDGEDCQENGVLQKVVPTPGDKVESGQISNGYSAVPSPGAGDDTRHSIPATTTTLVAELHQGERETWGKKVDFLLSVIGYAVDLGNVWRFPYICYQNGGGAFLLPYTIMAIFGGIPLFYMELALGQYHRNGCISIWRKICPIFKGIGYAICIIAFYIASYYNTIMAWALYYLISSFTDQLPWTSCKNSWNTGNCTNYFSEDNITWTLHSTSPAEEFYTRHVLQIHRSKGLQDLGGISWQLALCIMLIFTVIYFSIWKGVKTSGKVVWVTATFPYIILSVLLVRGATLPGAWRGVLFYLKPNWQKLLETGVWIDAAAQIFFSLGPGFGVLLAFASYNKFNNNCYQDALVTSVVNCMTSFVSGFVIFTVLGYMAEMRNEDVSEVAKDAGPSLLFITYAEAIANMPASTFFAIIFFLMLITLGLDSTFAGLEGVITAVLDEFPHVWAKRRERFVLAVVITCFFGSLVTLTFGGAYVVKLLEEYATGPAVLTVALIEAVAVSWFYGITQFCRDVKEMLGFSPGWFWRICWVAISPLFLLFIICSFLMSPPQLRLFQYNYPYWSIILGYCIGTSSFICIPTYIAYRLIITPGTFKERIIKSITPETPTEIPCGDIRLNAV
Description: (§7) IC50 and Ki values were obtained in analogy to NET experiments. Ratios DAT/NET and SERT/NET were determined.
as §7

human NET membranes = biological target: T5, human NET membranes (Homo sapiens, UniProt P23975); assay: NET-expressing membrane competitive binding ([3H]nisoxetine); details: n ≥ 9 triplicates; cold reference compounds; read-out: Kd (affinity, human NET membranes)
T5 construct: purchased Perkin Elmer RBHNETM400AU
T5 sequence (P23975 whole entry): as the sequence (P23975 whole entry) above
Description: The affinity of new radiolabelled ligand was determined in a NET-expressing membrane binding protocol [26, 27].
Data from the competition plots (as arithmetic means of values derived from three different assays, each in triplicate for each compound) were analyzed and subsequently IC50 and Ki values were calculated using GraphPad Prism® software (San Diego, USA).
The affinity of new radiolabeled ligand was determined in a NET-expressing membrane binding protocol [3-5]. […] After incubation time, binding was quenched with ice cold buffer, and membrane bound radioactivity was recovered by rapid vacuum filtration through GF/C glass fiber filters (Whatman® Inc., Clifton, USA) presoaked in assay buffer containing 0.3% polyethylene imine (PEI). […] After addition of a β-scintillation cocktail (2 mL Ultima Gold^TM, biodegradeable, Perkin Elmer), the tubes were shaken for 20 min and then counted. Data from the competition plots (as arithmetic means of values derived from three different assays, each in triplicate for each compound) were analyzed and subsequently IC50 and Ki values were calculated using GraphPad Prism® software (San Diego, USA).

human DAT membranes = biological target: T6, human DAT membranes (Homo sapiens, UniProt Q01959); assay: DAT-expressing membrane binding (selectivity); details: n ≥ 5 triplicates, read-out: affinity for DAT
T6 construct: purchased Perkin Elmer RBHDATM400UA
T6 sequence (Q01959 whole entry): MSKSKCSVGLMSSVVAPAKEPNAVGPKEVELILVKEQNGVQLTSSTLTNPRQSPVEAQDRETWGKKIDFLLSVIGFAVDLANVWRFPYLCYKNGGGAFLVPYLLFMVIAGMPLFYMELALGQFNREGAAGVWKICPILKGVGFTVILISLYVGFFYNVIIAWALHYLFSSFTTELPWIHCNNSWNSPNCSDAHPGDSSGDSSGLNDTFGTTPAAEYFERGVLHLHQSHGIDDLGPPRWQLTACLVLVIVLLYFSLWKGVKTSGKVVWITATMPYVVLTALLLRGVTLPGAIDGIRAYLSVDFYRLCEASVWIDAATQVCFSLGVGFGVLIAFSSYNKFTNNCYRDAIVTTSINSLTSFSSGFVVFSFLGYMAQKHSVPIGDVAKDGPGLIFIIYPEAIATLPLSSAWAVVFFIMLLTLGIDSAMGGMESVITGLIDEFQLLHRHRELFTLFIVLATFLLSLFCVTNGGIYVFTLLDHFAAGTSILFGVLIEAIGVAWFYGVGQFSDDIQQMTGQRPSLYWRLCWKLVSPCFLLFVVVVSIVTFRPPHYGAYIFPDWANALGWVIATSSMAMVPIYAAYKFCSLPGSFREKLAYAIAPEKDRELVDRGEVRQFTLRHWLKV
Description: as §7, §7

[7] = human cortex, competitor 100 nM
[8] = human hippocampus, competitor 100 nM
[9] = human hippocampus, competitor 1 μM
[10] = human hypothalamus, competitor 100 nM
[11] = human hypothalamus, competitor 1 μM
[12] = human thalamus, competitor 100 nM
[13] = human thalamus, competitor 1 μM

SMILES: [2H]C([2H])(F)Oc1ccccc1OC(c1ccccc1)C1CNCCO1 (centres unmarked) [FMeNER-D2]
% BL-competitor (NET [1]; competitor 100 nM): 99.00 ± 0.07%
fmol (calculated relative concentration of transporter protein) (NET [1]; competitor 100 nM): <0.01 fmol/mm^2
% BL-competitor (NET [1]; competitor 1 μM): 88.8 ± 11.2%
fmol (calculated relative concentration of transporter protein) (NET [1]; competitor 1 μM): <0.01 fmol/mm^2
logD ([2]; HPLC method, phosphate buffer pH 7.4): 2.73
% BL-competitor (NET [3]; human cerebellum, competitor 100 nM): 103.9 ± 12.2%
% BL-competitor (NET [3]; human cerebellum, competitor 1 μM): 108.2 ± 17.3%
% BL-competitor (NET [3]; [7]): 86.3 ± 11.2 %
fmol (calculated relative concentration of transporter protein) (NET [3]; [7]): <0.01 fmol/mm^2
% BL-competitor (NET [3]; human cortex, competitor 1 μM): 71.9 ± 7.9 %
fmol (calculated relative concentration of transporter protein) (NET [3]; human cortex, competitor 1 μM): 0.86 fmol/mm^2
% BL-competitor (NET [3]; [8]): 97.1 ± 10.3%
fmol (calculated relative concentration of transporter protein) (NET [3]; [8]): <0.01 fmol/mm^2
% BL-competitor (NET [3]; [9]): 67.3 ± 8.2%
fmol (calculated relative concentration of transporter protein) (NET [3]; [9]): <0.01 fmol/mm^2
% BL-competitor (NET [3]; [10]): 97.8 ± 14.6%
fmol (calculated relative concentration of transporter protein) (NET [3]; [10]): 0.11 fmol/mm^2
% BL-competitor (NET [3]; [11]): 77.4 ± 14.5%
fmol (calculated relative concentration of transporter protein) (NET [3]; [11]): 0.02 fmol/mm^2
% BL-competitor (NET [3]; [12]): 77.6 ± 9.8%
fmol (calculated relative concentration of transporter protein) (NET [3]; [12]): 0.47 fmol/mm^2
% BL-competitor (NET [3]; [13]): 68.36 ± 2.11%
fmol (calculated relative concentration of transporter protein) (NET [3]; [13]): 0.71 fmol/mm^2
displacement of [11C]Me@HAPTHI [4]: concentration-dependent displacement
% BL-competitor (NET [5]; competitor 100 nM): 102.6 ± 14.5%
% BL-competitor (NET [5]; competitor 1 μM): 107.6 ± 17.7%

unspecific filter retention [6]: 51.26 ± 0.78%
SMILES: [11CH3]NC[C@@H](O)CCN1c2ccccc2N(c2ccccc2)S1(=O)=O [[^11C]Me@HAPTHI, (S)-1-(3-hydroxy-4-([^11C]methylamino)butyl)-3-phenyl-1,3-dihydrobenzo[c][1,2, 5]thiadiazole 2,2-dioxide]

Kd (human SERT membranes): 10.3 µM
chromatographic logD [2]: 2.3 ± 0.01
Kd (human NET membranes): 0.0242 ± 0.0109 µM
Kd (human DAT membranes): > 10 µM
SMILES: NC[C@@H](O)CCN1c2ccccc2N(c2ccccc2)S1(=O)=O [HAPTHI, (S)-1-(4-amino-3-hydroxybutyl)-3-phenyl-1,3-dihydrobenzo[c][1,2, 5]thiadiazole 2,2-dioxide]

chromatographic logD [2]: 2.27 ± 0.01
SMILES: CNC[C@@H](O)CCN1c2ccccc2N(c2ccccc2)S1(=O)=O [Me@HAPTHI, (S)-1-(3-hydroxy-4-(methylamino)butyl)-3-phenyl-1,3-dihydrobenzo[c][1,2, 5]thiadiazole 2,2-dioxide]
